From EP4759812A1 (Guangzhou Lupeng Pharmaceutical Co., Ltd., priority 2023, dated 2025)
“Also recorded” adds a separate entry of the source.

Tests used:
Assay type in all cases: physicochemical
Long-term stability test = conditions: 25±2°C, 60±5 RH %; for Crystal form: XRPD
[1] = Influencing factor stability: high-temperature test; conditions: Temperature 60°C; for Purity: HPLC, starting purity: Crystal form VI 99.32%, Amorphous form 98.80%, Crystal form XIII 99.01%; for Crystal form: XRPD
Protocol: (§1) The crystal form results under different conditions were identified by XRPD analysis, and the purity results under different conditions were identified by HPLC analysis.
(§2) The above samples were then taken on days 5, 10, 15, and 30, respectively. Their crystal forms were tested by adopting X-ray powder diffraction (XRPD), and the sample purities were tested by adopting HPLC. […]

[2] = Accelerated stability test; conditions: 40±2°C, 75±5 RH %; for Crystal form: XRPD
[3] = Influencing factor stability: high-humidity test; conditions: Temperature 25°C, relative humidity 92.5±5%; for Purity: HPLC, starting purity: Crystal form VI 99.32%, Amorphous form 98.80%, Crystal form XIII 99.01%; for Crystal form: XRPD
Protocol: as §1, §2

[4] = Stability test in pure water and buffer solution (suspension, XRPD); conditions: 25°C, stirred 24 h, solid by XRPD
Protocol: The suspensions were stirred at 25°C for 24 h, and filtered to obtain the solids. Samples were taken for XRPD measurement. […]

[5] = Dynamic vapor sorption (DVS) experiment; conditions: for Hygroscopicity: class per Chinese Pharmacopoeia 2010 guidance (25±0.2°C, 80% relative humidity)
[6] = Morphological comparison under polarizing light microscope
[7] = Influencing factor stability: light exposure test; conditions: Visible light 4500 Lux ± 500 Lux; for Crystal form: ultraviolet light 1.7 W*h/m^2 (25°C, RH 60%±5%), XRPD; for Purity: HPLC, starting purity: Crystal form VI 99.32%, Amorphous form 98.80%, Crystal form XIII 99.01%
Protocol: as §1, §2

In the case of `C=CC(=O)Nc1cc(Nc2nc(-c3ccnc(N4CCn5c(cc6c5CC(C)(C)C6)C4=O)c3CO)cn(C)c2=O)ccc1N1CCN(C2CCOCC2)C[C@@H]1C` [Crystal form VI, (S)-N-(5-((6-(2-(7,7-dimethyl-1-oxo-1,3,4,6,7,8-hexahydro-2H-cyclopenta[4,5]pyrrolo[1,2-a]pyrazin-2-yl)-3-(hydroxymethyl)pyridin-4-yl)-4-methyl-3-oxo-3,4-dihydropyrazin-2-yl)amino)-2-(2-methyl-4-(tetrahydro-2H-pyran-4-yl)piperazin-1-yl)phenyl)acrylamide], the Purity (Long-term stability test; 0 days) is reported as 99.32%, the Crystal form (Long-term stability test; 0 days) is reported as “Crystal form VI” and the Purity (Long-term stability test; 1 month) is reported as 99.31%. The Crystal form (Long-term stability test; 1 month) was “Crystal form VI”, the Purity (Long-term stability test; 6 months) was 99.35% and the Crystal form (Long-term stability test; 6 months) was “Crystal form VI”. The Purity (Long-term stability test; 12 months) was 99.28%, the Crystal form (Long-term stability test; 12 months) was “Crystal form VI” and the Purity (Long-term stability test; 18 months) was 99.31%. The Crystal form (Long-term stability test; 18 months) was “Crystal form VI”, the Purity (Long-term stability test; 24 months) was 99.30% and the Crystal form (Long-term stability test; 24 months) was “Crystal form VI”. The Crystal form (Long-term stability test; 24 months, listed as crystal form VI) was “no change in crystal form”, the Purity ([1]; 5 days) was 99.31% and the Crystal form ([1]; 5 days) was “Crystal form VI”. For the same molecule, the Purity ([1]; 10 days) was 99.25%, the Crystal form ([1]; 10 days) was “Crystal form VI” and the Purity ([1]; 15 days) was 98.96%. For the same molecule, the Crystal form ([1]; 15 days) was “Crystal form VI”, the Purity ([1]; 30 days) was 98.72% and the Crystal form ([1]; 30 days) was “Crystal form VI”. The Crystal form ([1]; 30 days, listed as crystal form VI) was “no change in crystal form”, the Purity ([2]; 0 days) was 99.32% and the Crystal form ([2]; 0 days) was “Crystal form VI”. For the same molecule, the Purity ([2]; 1 month) was 99.18%, the Crystal form ([2]; 1 month) was “Crystal form VI” and the Purity ([2]; 3 months) was 98.98%. The Crystal form ([2]; 3 months) was “Crystal form VI”, the Purity ([2]; 6 months) was 98.54% and the Crystal form ([2]; 6 months) was “Crystal form VI”. The Crystal form ([2]; 6 months, listed as crystal form VI) was “no change in crystal form”, the Purity ([3]; 5 days) was 99.35% and the Crystal form ([3]; 5 days) was “Crystal form VI”. For the same molecule, the Purity ([3]; 10 days) was 99.35%, the Crystal form ([3]; 10 days) was “Crystal form VI” and the Purity ([3]; 15 days) was 99.32%. The Crystal form ([3]; 15 days) was “Crystal form VI”, the Purity ([3]; 30 days) was 99.31% and the Crystal form ([3]; 30 days) was “Crystal form VI”. For the same molecule, the Suspension result ([4]; Pure water) was “Crystal form VI”, the Suspension result ([4]; pH 4.5 buffer solution) was “Crystal form VI” and the Suspension result ([4]; pH 6.8 buffer solution) was “Crystal form VI”. The “Adsorption weight gain (80% RH)” value ([5]; DVS, 80% RH) was 0.79%, the “Adsorption weight gain (95% RH)” value ([5]; DVS, 95% RH) was 1.34% and the Hygroscopicity [5] was “Slightly hygroscopic (hygroscopic weight gain is less than 2% but not less than 0.2%)”. For the same molecule, the Hygroscopicity ([5]; listed as crystal form VI) was “slightly hygroscopic; also recorded: slight hygroscopicity”, the “dispersibility and flowability / agglomeration and caking” value ([6]; judged from polarizing light microscope images) was “relatively good dispersibility and flowability” and the crystal morphology ([6]; polarizing light microscope) was “long rod-shaped”. The Crystal form ([7]; 5 days) was “Crystal form VI”, the Crystal form ([7]; 10 days) was “Crystal form VI” and the Crystal form ([7]; 15 days) was “Crystal form VI”. The Crystal form ([7]; 30 days) was “Crystal form VI”, the Purity ([7]; ultraviolet light 1.7 W*h/m^2, 5 days) was 99.17% and the Purity ([7]; ultraviolet light 1.7 W*h/m^2, 10 days) was 99.23%. It also gave a Purity ([7]; ultraviolet light 1.7 W*h/m^2, 15 days) of 98.71% and a Purity ([7]; ultraviolet light 1.7 W*h/m^2, 30 days) of 98.14%.
